Data reported in patent publication US7303895B1 (priority 1999, dated 2007).

How the values were obtained:
Format in all cases: cell-based
[1] = target: T1, mutant yeast transformed by 4.17 (truncated tCTL1) (Torpedo marmorata, UniProt Q9I9B9, G501V); assay: saturable [3H]choline absorption by mutant yeast transformed with clone 4.17; details: 1 μM HC-3, 30° C., 30 minutes
T1 construct: the suppressor, 4.17, whose first ATG corresponds to M471 of tCTLI; expressed in transfected cells; host or cells: Saccharomyces cerevisiae ctr ise URA3 mutant strain, plasmid pFL61
Protocol: The transformed yeast was incubated at 30° C. for 30 minutes with 25 nM [3H]-choline.
The plasmids were isolated from colonies having a strong choline-dependent growth phenotype, and they were used to transform aliquot fractions of mutant yeast in order to eliminate the ctr reverse mutants and the yeast suppressor mutations.
The culture density was normalized by measuring the OD600.

[2] = target: T2, CTL1 in glioma cell C6 (Rattus norvegicus, UniProt Q8VII6, K645E/R267S); assay: total absorption of choline by glioma C6 cells transiently transfected with CTL1pcDNA3; details: hemicholinium-3; 48 hours after transfection; only C6-CTL1pcDNA3 cells, not empty-plasmid cells
T2 construct: expressed in transfected cells; host or cells: glioma C6 cells, transient transfection, vector pcDNA3
T2 sequence (Q8VII6 1-653 isoform Q8VII6-2 R267S/K645E): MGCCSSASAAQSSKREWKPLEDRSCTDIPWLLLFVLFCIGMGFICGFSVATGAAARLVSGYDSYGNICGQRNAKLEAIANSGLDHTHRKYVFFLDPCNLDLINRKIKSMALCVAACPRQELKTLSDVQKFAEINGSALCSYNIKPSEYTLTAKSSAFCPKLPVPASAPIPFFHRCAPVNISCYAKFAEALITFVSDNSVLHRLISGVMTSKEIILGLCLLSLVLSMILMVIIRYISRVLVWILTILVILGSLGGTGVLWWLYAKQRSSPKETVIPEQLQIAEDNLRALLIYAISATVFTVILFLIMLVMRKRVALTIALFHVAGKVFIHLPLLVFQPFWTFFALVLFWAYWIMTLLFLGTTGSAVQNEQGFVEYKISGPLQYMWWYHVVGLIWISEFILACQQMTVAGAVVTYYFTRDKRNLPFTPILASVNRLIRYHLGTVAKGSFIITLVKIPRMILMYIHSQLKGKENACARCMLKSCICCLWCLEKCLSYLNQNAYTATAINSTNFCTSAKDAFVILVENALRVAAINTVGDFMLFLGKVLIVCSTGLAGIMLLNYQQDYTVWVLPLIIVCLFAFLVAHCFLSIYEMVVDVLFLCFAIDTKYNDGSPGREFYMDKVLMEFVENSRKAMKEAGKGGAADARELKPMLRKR
Source text: FIGS. 8A-8C: Transient transfection of glioma cell C6 with the vector CTL1pcDNA3 described in FIG. 6.

[3] = tested on: N18 cells; assay: capture of tritiated choline by N18 cells transiently transfected with rCTL1a/pcDNA3, rCTL1b/pcDNA3 or pcDNA3; details: 10 μM of the substance; 24 hours after transfection; same in all three transfections (rCTL1a, rCTL1b, empty pcDNA3); result not shown

T1 sequence (Q9I9B9 471-646 G501V): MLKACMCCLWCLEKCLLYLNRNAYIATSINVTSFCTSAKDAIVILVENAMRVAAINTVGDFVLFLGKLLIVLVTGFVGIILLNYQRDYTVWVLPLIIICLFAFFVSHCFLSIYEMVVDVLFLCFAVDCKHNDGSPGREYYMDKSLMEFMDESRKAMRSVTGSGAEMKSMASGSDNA

C[N+]1(C)CCOC(O)(c2ccc(-c3ccc(C4(O)C[N+](C)(C)CCO4)cc3)cc2)C1.[Br-].[Br-] (stereo not drawn) [HC-3, hemicholinium-3]
saturable [3H]choline absorption by the yeast transformed in 4.17 [1]: inhibited
inhibition of total absorption of choline [2]: inhibition
inhibition of capture of tritiated choline [3]: about 50%
